Reference: US7541466B2, “Tetrahydroisoquinoline derivatives for treating protein trafficking diseases” (Genzyme Corporation, priority 2003, dated 2009)

Target: T1, ΔF508 CFTR (Homo sapiens, UniProt P13569, DEL508-508)
T1 construct: expressed in transfected cells
Test: MQAE chloride transport assay in C127 cells expressing ΔF508 CFTR
Format: cell-based, murine
Details: for Emax: C127, plateau level in activity at high compound concentration, read-out: % of Maximal Response; for EC50: chloride transport activity, MQAE; for % Maximal Response @ 1.25 μM: limiting concentration 1.25 μM
Description: C127 cells are a murine mammary epithelial cell line obtained from ATCC (#CRL 1616, American Type Culture Collection, Manassas, Va.). C127 cells were transfected with a bovine papilloma virus-based eukaryotic expression vector containing genes for ΔF508 CFTR and neomycin resistance whose expression was driven by a metallothionein promoter. Clonal cell populations resistant to G418 and positive for staining with anti-CFTR antibody were identified.
C127 cells expressing ΔF508 CFTR were grown in microtiter plates in DMEM (Dulbecco's Modified Eagle Medium, Hyclone, Logan, Utah) supplemented with fetal bovine serum, antibiotics, and glutamine in a 37° C., 5% CO2 atmosphere. Once confluent, the cells were loaded overnight with the disclosed compounds and a fluorescent dye sensitive to chloride ion concentration, N-(ethoxycarbonylmethyl)-6-methoxy quinolinium bromide (MQAE) (Verkman, Am. J. Physiol. 259 C375-C388 (1990)).
The following day, cells were washed with chloride-containing buffer to remove extracellular MQAE and to quench intracellular MQAE fluorescence. Chloride buffer was flicked out and replaced with nitrate buffer with added forskolin and IBMX (isobutylmethylxanthine) to stimulate CFTR activity. […] Buffers were adjusted to pH 7.4 and contained: 10 mM HEPES (N-2-Hydroxyethylpiperazine-N′-2-ethanesulfonic acid), 2.4 mM K2HPO4, 0.6 mM KH2PO4, 1.0 mM CaSO4, 1.0 mM MgSO4, 150 mM NaCl or NaNO3, and 25 mM glucose.
The increase in MQAE fluorescence as a function of time was followed using 360 nm excitation and 460 nm emission wavelengths. Fluorescence increased as chloride flowed out of cells through CFTR and the rate of increase in fluorescence over the first five minutes was taken as a measure of chloride transport activity.
Cells were treated with mixtures of up to 100 compounds per well for ca. 18 hours before the assay for chloride transport activity. […] Dose-response curves were generated and compounds were ranked based on their EC50 values and maximal responses (the plateau level in activity at high compound concentration, as a percentage of the low temperature response).

[1] = as a percentage of the low temperature response
[2] = percentage of low temperature response, C127 ΔF508 CFTR cells

T1 sequence (P13569 with tags, fused parts or gaps DEL508-508): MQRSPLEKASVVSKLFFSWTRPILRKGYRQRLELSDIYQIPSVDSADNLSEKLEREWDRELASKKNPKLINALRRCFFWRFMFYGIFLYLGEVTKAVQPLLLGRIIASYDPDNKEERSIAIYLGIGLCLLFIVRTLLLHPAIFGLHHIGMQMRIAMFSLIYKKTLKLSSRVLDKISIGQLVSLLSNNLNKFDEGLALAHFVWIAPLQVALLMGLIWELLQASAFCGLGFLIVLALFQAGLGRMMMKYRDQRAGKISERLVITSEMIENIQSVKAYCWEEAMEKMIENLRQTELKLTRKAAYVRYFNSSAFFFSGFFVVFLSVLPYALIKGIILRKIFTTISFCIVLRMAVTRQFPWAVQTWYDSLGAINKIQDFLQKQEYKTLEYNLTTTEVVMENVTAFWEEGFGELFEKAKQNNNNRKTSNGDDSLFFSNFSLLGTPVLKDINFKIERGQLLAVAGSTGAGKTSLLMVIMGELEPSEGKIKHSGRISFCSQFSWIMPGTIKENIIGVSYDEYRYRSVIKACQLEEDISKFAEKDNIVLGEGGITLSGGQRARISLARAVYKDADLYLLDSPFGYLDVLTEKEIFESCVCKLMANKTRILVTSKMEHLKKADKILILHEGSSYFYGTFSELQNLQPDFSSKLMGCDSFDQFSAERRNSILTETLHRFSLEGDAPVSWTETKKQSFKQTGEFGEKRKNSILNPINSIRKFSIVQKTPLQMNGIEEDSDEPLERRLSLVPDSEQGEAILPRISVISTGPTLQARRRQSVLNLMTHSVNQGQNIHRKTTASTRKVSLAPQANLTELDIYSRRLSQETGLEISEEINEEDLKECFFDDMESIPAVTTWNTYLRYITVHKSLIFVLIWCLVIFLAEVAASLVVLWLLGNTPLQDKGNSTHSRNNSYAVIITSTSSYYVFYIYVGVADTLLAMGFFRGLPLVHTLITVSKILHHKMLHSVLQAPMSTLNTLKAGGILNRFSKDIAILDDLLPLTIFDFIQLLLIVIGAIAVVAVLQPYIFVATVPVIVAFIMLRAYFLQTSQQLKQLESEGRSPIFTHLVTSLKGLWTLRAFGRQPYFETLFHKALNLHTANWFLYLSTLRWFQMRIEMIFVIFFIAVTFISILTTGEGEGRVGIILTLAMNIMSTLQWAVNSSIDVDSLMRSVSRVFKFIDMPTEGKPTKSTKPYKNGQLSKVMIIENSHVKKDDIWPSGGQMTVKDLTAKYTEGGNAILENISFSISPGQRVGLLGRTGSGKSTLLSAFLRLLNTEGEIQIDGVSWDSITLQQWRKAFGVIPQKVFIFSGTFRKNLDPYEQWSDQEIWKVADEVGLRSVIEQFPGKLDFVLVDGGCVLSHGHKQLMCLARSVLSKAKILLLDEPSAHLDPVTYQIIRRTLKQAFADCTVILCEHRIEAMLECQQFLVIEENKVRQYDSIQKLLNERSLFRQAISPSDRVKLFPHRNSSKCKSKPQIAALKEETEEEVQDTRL

O=C(Nc1ccc(Cl)cc1)C1Cc2ccccc2CN1C(=O)c1cccc(Oc2ccccc2)c1 (racemic) [Compound 1]
Emax [1]: 79%

Cc1ccc(Oc2cccc(C(=O)N3Cc4ccccc4CC3C(=O)Nc3ccc(Cl)cc3)c2)cc1 (racemic) [Compound 7]
Emax [1]: 77% | EC50 (C127 ΔF508 CFTR cells): 250 nM

CC(C)(C)c1ccc(Oc2cccc(C(=O)N3Cc4ccccc4CC3C(=O)Nc3ccc(Cl)cc3)c2)cc1 (racemic) [Compound 8]
Emax [1]: 95% | EC50 (C127 ΔF508 CFTR cells): 280 nM

COc1ccccc1Oc1cccc(C(=O)N2Cc3ccccc3CC2C(=O)Nc2ccc(Cl)cc2)c1 (racemic) [Compound 11, (±)-2-[3-(2-Methoxyphenoxy)benzoyl]-1,2,3,4-tetrahydroisoquinoline-3-carboxylic acid(4-chlorophenyl)amide]
Emax [1]: 52% | EC50 (C127 ΔF508 CFTR cells): 260 nM

COc1ccc(C(=O)N2Cc3ccccc3CC2C(=O)Nc2ccc(Cl)cc2)cc1Oc1ccccc1 (racemic) [Compound 17]
Emax [1]: 65% | EC50 (C127 ΔF508 CFTR cells): 67 nM

O=C(Nc1ccc(Cl)cc1)C1Cc2ccc(O)cc2CN1C(=O)c1cccc(Oc2ccccc2)c1 (racemic) [Compound 20]
Emax [1]: 28% | EC50 (C127 ΔF508 CFTR cells): 1240 nM

CCCCCc1ccc(NC(=O)C2Cc3c(C)cccc3CN2C(=O)c2cccc(Oc3ccccc3)c2)cc1 (racemic) [Compound 21]
Emax [1]: 28% | EC50 (C127 ΔF508 CFTR cells): 170 nM

O=C(Nc1ccc(Cl)cc1)C1Cc2ccccc2CN1C(=O)c1ccc2ccccc2c1 (racemic) [Compound 22, (±)-2-(Naphthalene-2-carbonyl)-1,2,3,4-tetrahydroisoquinoline-3-carboxylic acid(4-chlorophenyl)amide]
% Maximal Response @ 1.25 μM [2]: 36%

Cc1ccc(NC(=O)C2Cc3ccccc3CN2C(=O)c2cccc(Oc3ccccc3)c2)cc1 (racemic) [Compound 67]
Percent of low-temperature response at 1.25 µM (C127, limiting concentration 1.25 μM, percentage of low temperature response, C127 ΔF508 CFTR cells, read-out: % Maximal Response @ 1.25 μM): 85% | Emax [1]: 70% | EC50 (C127 ΔF508 CFTR cells): 270 nM

O=C(NCCc1ccc(Br)cc1)C1Cc2ccccc2CN1C(=O)c1cccc(Oc2ccccc2)c1 (racemic) [Compound 73, (±)-2-(3-Phenoxybenzoyl)-1,2,3,4-tetrahydroisoquinoline-3-carboxylic acid[2-(4-bromophenyl)-ethyl]amide]
% Maximal Response @ 1.25 μM [2]: 34%

CCCc1ccc(NC(=O)C2Cc3ccccc3CN2C(=O)c2cccc(Oc3ccccc3)c2)cc1 (racemic) [Compound 75]
Emax [1]: 82% | EC50 (C127 ΔF508 CFTR cells): 270 nM

O=C(Nc1ccc(C2CCCCC2)cc1)C1Cc2ccccc2CN1C(=O)c1cccc(Oc2ccccc2)c1 (racemic) [Compound 76]
Emax [1]: 36% | EC50 (C127 ΔF508 CFTR cells): 400 nM

CCC(C)c1ccc(NC(=O)C2Cc3ccccc3CN2C(=O)c2cccc(Oc3ccccc3)c2)cc1 (racemic) [Compound 77]
Emax [1]: 30% | EC50 (C127 ΔF508 CFTR cells): 350 nM

CC(C)c1ccc(NC(=O)C2Cc3ccccc3CN2C(=O)c2cccc(Oc3ccccc3)c2)cc1 (racemic) [Compound 78]
Emax [1]: 40% | EC50 (C127 ΔF508 CFTR cells): 250 nM

CCc1ccc(NC(=O)C2Cc3ccccc3CN2C(=O)c2cccc(Oc3ccccc3)c2)cc1 (racemic) [Compound 79]
Emax [1]: 73% | EC50 (C127 ΔF508 CFTR cells): 230 nM

CCOc1cccc(NC(=O)C2Cc3ccccc3CN2C(=O)c2cccc(Oc3ccccc3)c2)c1 (racemic) [Compound 83]
Emax [1]: 79% | EC50 (C127 ΔF508 CFTR cells): 280 nM

CC(=O)N(C)c1ccc(NC(=O)C2Cc3ccccc3CN2C(=O)c2cccc(Oc3ccccc3)c2)cc1 (racemic) [Compound 85]
Emax [1]: 74% | EC50 (C127 ΔF508 CFTR cells): 96 nM

CCCCCc1ccc(NC(=O)C2Cc3ccccc3CN2C(=O)c2cccc(Oc3ccccc3)c2)cc1 (racemic) [Compound 87]
Emax [1]: 74%

CCCCCCN(C(C)=O)c1ccc(NC(=O)C2Cc3ccccc3CN2C(=O)c2cccc(Oc3ccccc3)c2)cc1 (racemic) [Compound 90, (±)-2-(3-Phenoxybenzoyl)-1,2,3,4-tetrahydroisoquinoline-3-carboxylic acid[4-(acetylhexylamino)phenyl]amide]
Emax [1]: 66% | EC50 (C127 ΔF508 CFTR cells): 59 nM

O=C(Nc1ccc(I)cc1)C1Cc2ccccc2CN1C(=O)c1cccc(Oc2ccccc2)c1 (racemic) [Compound 93]
Emax [1]: 60%

CCCC(=O)N(C)c1ccc(NC(=O)C2Cc3ccccc3CN2C(=O)c2cccc(Oc3ccccc3)c2)cc1 (racemic) [Compound 95, (±)-2-(3-Phenoxybenzoyl)-1,2,3,4-tetrahydroisoquinoline-3-carboxylic acid[4-(butyrylmethylamino)-phenyl]amide]
Emax [1]: 80% | EC50 (C127 ΔF508 CFTR cells): 150 nM

O=C(Nc1cccnc1)C1Cc2ccccc2CN1C(=O)c1cccc(Oc2ccccc2)c1 (racemic) [Compound 98]
Emax [1]: 55%

COc1ccc(NC(=O)C2Cc3ccccc3CN2C(=O)c2cccc(Oc3ccccc3)c2)cn1 (racemic) [Compound 99]
Emax [1]: 70% | EC50 (C127 ΔF508 CFTR cells): 270 nM

O=C(Nc1nccs1)C1Cc2ccccc2CN1C(=O)c1cccc(Oc2ccccc2)c1 (racemic) [Compound 100]
Emax [1]: 59% | EC50 (C127 ΔF508 CFTR cells): 430 nM

CCCCN(C(C)=O)c1ccc(NC(=O)C2Cc3ccccc3CN2C(=O)c2cccc(Oc3ccccc3)c2)cc1 (racemic) [Compound 102]
Emax [1]: 70%

COc1ccc(C(=O)N2Cc3ccccc3CC2C(=O)Nc2ccc(Cl)nc2)cc1Oc1ccccc1 (racemic) [Compound 108]
Emax [1]: 60% | EC50 (C127 ΔF508 CFTR cells): 100 nM

CCCCCc1ccc(NC(=O)C2Cc3ccccc3CN2C(=O)c2cccc(OCc3ccccc3)c2)cc1 (racemic) [Compound 113]
Emax [1]: 91% | EC50 (C127 ΔF508 CFTR cells): 69 nM

CC1c2ccccc2CN(C(=O)c2cccc(Oc3ccccc3)c2)C1C(=O)Nc1ccc(Cl)cc1 (single isomer, unassigned) [Compound 18]
Emax [1]: 59% | EC50 (C127 ΔF508 CFTR cells): 87 nM

CC1c2ccccc2CN(C(=O)c2cccc(Oc3ccccc3)c2)C1C(=O)Nc1ccc(Cl)cc1 (single isomer, unassigned) [Compound 19]
EC50 (C127 ΔF508 CFTR cells): 150 nM | % of Maximal Response (plateau level in activity at high compound concentration, as a percentage of the low temperature response): 69%

O=C(Nc1ccc(Cl)cc1)C1Cc2ccccc2CN1C(=O)c1cccc(OCc2ccccc2)c1 (single isomer, unassigned; (+)) [Compound 14, (+)-2-(3-Benzyloxybenzoyl)-1,2,3,4-tetrahydroisoquinoline-3-carboxylic acid(4-chlorophenyl)amide]
Emax [1]: 85% | EC50 (C127 ΔF508 CFTR cells): 220 nM

CC(=O)N(C)c1ccc(NC(=O)[C@@H]2Cc3ccccc3CN2C(=O)c2cccc(Oc3ccccc3)c2)cc1 [Compound 86]
Emax [1]: 54% | EC50 (C127 ΔF508 CFTR cells): 66 nM

CCCCCc1ccc(NC(=O)[C@@H]2Cc3ccccc3CN2C(=O)c2cccc(Oc3ccccc3)c2)cc1 [Compound 88]
Emax [1]: 76%

CCCCCCN(C(C)=O)c1ccc(NC(=O)[C@@H]2Cc3ccccc3CN2C(=O)c2cccc(Oc3ccccc3)c2)cc1 [Compound 91]
Emax [1]: 70% | EC50 (C127 ΔF508 CFTR cells): 29 nM

CCCCN(C(C)=O)c1ccc(NC(=O)[C@@H]2Cc3ccccc3CN2C(=O)c2cccc(Oc3ccccc3)c2)cc1 [Compound 103]
Emax [1]: 76%

CCCCCc1ccc(NC(=O)[C@@H]2Cc3ccccc3CN2C(=O)c2cccc(Oc3ccccc3)c2)cn1 [Compound 107, (S)-2-(3-Phenoxybenzoyl)-1,2,3,4-tetrahydroisoquinoline-3-carboxylic acid(6-pentylpyridin-3-yl)amide]
Emax [1]: 54%

O=C(Nc1ccc(F)cc1)[C@@H]1Cc2ccccc2CN1C(=O)c1cc(OC2CCCCC2)ccn1 [Compound 109]
Emax [1]: 87% | EC50 (C127 ΔF508 CFTR cells): 96 nM

COc1ccc(NC(=O)[C@@H]2Cc3ccccc3CN2C(=O)c2cc(OC3CCCCC3)ccn2)cn1 [Compound 110]
Emax [1]: 64% | EC50 (C127 ΔF508 CFTR cells): 400 nM

CCOc1cccc(NC(=O)[C@@H]2Cc3ccccc3CN2C(=O)c2cc(OC3CCCCC3)ccn2)c1 [Compound 111]
Emax [1]: 73% | EC50 (C127 ΔF508 CFTR cells): 150 nM

CCCCCc1ccc(NC(=O)[C@@H]2Cc3ccccc3CN2C(=O)c2cccc(Oc3ccc(OC)cc3)c2)cc1 [Compound 112]
Emax [1]: 71% | EC50 (C127 ΔF508 CFTR cells): 39 nM

CCCCCc1ccc(NC(=O)[C@@H]2Cc3ccccc3CN2C(=O)c2cccc(OCc3ccccc3)c2)cc1 [Compound 114]
Emax [1]: 72% | EC50 (C127 ΔF508 CFTR cells): 59 nM

CCCCCc1ccc(NC(=O)[C@@H]2Cc3ccccc3CN2C(=O)c2ccc(OC)c(Oc3ccccc3)c2)cc1 [Compound 115]
Emax [1]: 74%

CCCCCc1ccc(NC(=O)[C@@H]2Cc3ccccc3CN2C(=O)c2ccc(OC)c(OCc3ccccc3)c2)cc1 [Compound 116]
Emax [1]: 88% | EC50 (C127 ΔF508 CFTR cells): 18 nM

CCCCCc1ccc(NC(=O)[C@@H]2Cc3ccccc3CN2C(=O)c2cc(Oc3ccccc3)ccn2)cc1 [Compound 118]
Emax [1]: 79%
